Where a name gives a salt, the structure may show the parent alone.
How the values were obtained:
Format in all cases: in vivo
[1] = test system: Rice plants (indica cultivar ‘IR-64’); experiment: Test O: harvest yield of rice crop outdoors, Bargarh; conditions: 12.5, 25 and 50 g a.i./ha (method: 6.25, 12.5, 25 or 50), with indoxacarb and chlorantraniliprole, controls 1370 kg/ha
Protocol: (§1) To evaluate the effect of application of a compound of the invention on the vigor of rice crops grown under outdoor conditions, Tests 1 through 0 were conducted. “a.i.” refers to the amount of active ingredient applied.
Rice plants (indica cultivar ‘IR-64’) were transplanted into flooded 5 m×5 m test plots of clay loam soil the Bargarh district, Orissa, India, at the end of the winter season, and grown using local agronomic practices. After 79 days, aqueous mixtures containing 30 g a.i./ha of indoxacarb in form of STEWARD® Insecticide, 20 g a.i./ha of chlorantraniliprole, and 6.25, 12.5, 25 or 50 g a.i./ha of Compound 3 were applied to the foliage of the rice plants at in a spray volume of 500 L/ha using a backpack sprayer. Plots of control rice plants were sprayed with an aqueous mixture containing 30 g a.i./ha of indoxacarb in form of STEWARD® Insecticide and 20 g a.i./ha of chlorantraniliprole (i.e. no Compound 3). Each treatment and control was replicated three times, and the plots were arranged in a randomized complete block design. At the time of application of Compound 3, the pest level of rice brown planthopper (Nilaparvata lugens) was high, i.e. much above the level considered economically significant.
Harvest yields from the crops treated with 12.5, 25 and 50 g a.i./ha of Compound 3 were 2470, 3430, 3470 and 4600 kg/ha, respectively, compared to 1370 kg/ha from the untreated controls.

[2] = test system: green peach aphid (Myzus persicae); experiment: Test B: control of green peach aphid on radish plant, contact and/or systemic; conditions: 144 h, assessed after 6 days
Excerpt: For evaluating control of green peach aphid (Myzus persicae) through contact and/or systemic means, the test unit consisted of a small open container with a 12-15-day-old radish plant inside. This was pre-infested by placing on a leaf of the test plant 30-40 aphids on a piece of leaf excised from a culture plant (cut-leaf method). The aphids moved onto the test plant as the leaf piece desiccated. After pre-infestation, the soil of the test unit was covered with a layer of sand.
Test compounds were formulated and sprayed at 250, 50 and/or 10 ppm as described for Test A. The applications were replicated three times. After spraying of the formulated test compound, each test unit was allowed to dry for 1 h and then a black, screened cap was placed on top. The test units were held for 6 days in a growth chamber at 19-21° C. and 50-70% relative humidity. Each test unit was then visually assessed for insect mortality.

[3] = test system: Rice plants (indica cultivar ‘IR 64’); experiment: Test L: vigor and harvest yield of rice crop outdoors, Dhamtari; conditions: for harvest yield: controls 2630 kg/ha
Protocol: as §1
Rice plants (indica cultivar ‘IR 64’) were transplanted into flooded 6 m×5 m test plots of clay loam soil in the Dhamtari district, State of Chhattisgarh, India, in the early spring season, and grown using local agronomic practices. After 79 days, in the hot season before monsoon arrival, aqueous mixtures containing 30 g a.i./ha of indoxacarb in form of STEWARD® Insecticide, 20 g a.i./ha of chlorantraniliprole, and 6.25, 12.5, 25 or 50 g a.i./ha of Compound 3 were applied to the foliage of the rice plants at in a spray volume of 500 L/ha using a backpack sprayer. Plots of control rice plants were sprayed with an aqueous mixture containing 30 g a.i./ha of indoxacarb in form of STEWARD® Insecticide and 20 g a.i./ha of chlorantraniliprole (i.e. no Compound 3). Each treatment and control was replicated three times, and the plots were arranged in a randomized complete block design. At the time of application of Compound 3, the pest level of rice brown planthopper (Nilaparvata lugens) was high, i.e. above the level considered economically significant.
Even though the pest level was high, at the time of treatment the plants had already reached full height and produced panicles, so the treatment with Compound 3 was too late to noticeably increase crop vigor rated by general external appearance (e.g., plant height, number of panicles). Nevertheless, the treatments substantially benefited crop vigor as measured by harvest yield. Harvest yields from the crops treated with 6.25, 12.5, 25 and 50 g a.i./ha of Compound 3 were 4630, 4830, 4730 and 4930 kg/ha, respectively, compared to 2630 kg/ha from the untreated controls.

[4] = test system: Rice plants (indica cultivar ‘MTU1010’); experiment: Test I: vigor of rice crop outdoors, foliar application, West Godavri; conditions: 20 days after application, Nilaparvata lugens level high
Protocol: as §1
Rice plants (indica cultivar ‘MTU1010’) were transplanted into flooded 5 m×3 m test plots of clay loam soil in the delta region of the West Godavri district, Andhra Pradesh, India, during the rainy season, and grown using local agronomic practices. After 47 days, aqueous mixtures of Compound 3 were applied to the foliage of the rice plants at 12.5, 25 or 50 g a.i./ha in a spray volume of 387 L/ha using a backpack sprayer. Plots of unsprayed rice plants were used as controls. Each treatment and control was replicated three times, and the plots were arranged in a randomized complete block design. At the time of application of Compound 3, the pest level of rice brown planthopper (Nilaparvata lugens) was high, i.e. much above the level considered economically significant.
The crop vigor of the rice plants in each plot was visually rated based on general external appearance (e.g., plant height) 20 days after application on a 0 to 200% scale, wherein the plants in untreated control plots were considered to represent 100%, and the results for the three replicates for each treatment were averaged. More than 100% means the plants in a treated plot were more vigorous than those in the untreated control plot, while less than 100% means the plants in the treated pot were less vigorous.

O=c1c(-c2cccc(C(F)(F)F)c2)c([O-])[n+](Cc2cncnc2)c2ccccn12 [Compound 3, 2-hydroxy-4-oxo-1-(5-pyrimidinylmethyl)-3-[3-(trifluoromethyl)phenyl]-4H-pyrido[1,2-a]pyrimidinium inner salt]
harvest yield ([1]; 1st of four values): 2470 kg/ha
harvest yield ([1]; 2nd of four values): 3430 kg/ha
harvest yield ([1]; 3rd of four values): 3470 kg/ha
harvest yield ([1]; 4th of four values): 4600 kg/ha
mortality at 50 ppm ([2]; sprayed at 50 ppm): ≥ 80%
mortality at 250 ppm ([2]; sprayed at 250 ppm): ≥ 80%
harvest yield ([3]; 6.25 g a.i./ha with 30 g a.i./ha indoxacarb and 20 g a.i./ha chlorantraniliprole): 4630 kg/ha
harvest yield ([3]; 12.5 g a.i./ha with 30 g a.i./ha indoxacarb and 20 g a.i./ha chlorantraniliprole): 4830 kg/ha
harvest yield ([3]; 25 g a.i./ha with 30 g a.i./ha indoxacarb and 20 g a.i./ha chlorantraniliprole): 4730 kg/ha
harvest yield ([3]; 50 g a.i./ha with 30 g a.i./ha indoxacarb and 20 g a.i./ha chlorantraniliprole): 4930 kg/ha
crop vigor (visual rating, 0 to 200% scale, control = 100%) ([3]; all application rates (6.25, 12.5, 25 or 50 g a.i./ha) with 30 g a.i./ha indoxacarb and 20 g a.i./ha chlorantraniliprole, 21 days after application, Nilaparvata lugens level high): 100%
crop vigor (visual rating, 0 to 200% scale, untreated = 100%) ([4]; 12.5 g a.i./ha foliar): 140%
crop vigor (visual rating, 0 to 200% scale, untreated = 100%) ([4]; 25 g a.i./ha foliar): 143%
crop vigor (visual rating, 0 to 200% scale, untreated = 100%) ([4]; 50 g a.i./ha foliar): 143%

Source: patent US8895738B2, “Mesoionic pyrido [1, 2-A] pyrimidine pesticides” (E I du Pont de Nemours and Company, priority 2010, dated 2014)
